Results from the Biogen ADME set (Fang et al. 2023).
≈ marks a conversion by molar mass, not a printed value.

Conditions: for aqueous solubility: pH 6.8

| aqueous solubility [µg/mL] | intrinsic clearance, human liver microsomes [mL/min/kg] | intrinsic clearance, rat liver microsomes [mL/min/kg] | MDR1-MDCK efflux ratio | fraction unbound, human plasma | fraction unbound, rat plasma | SMILES |
| --- | --- | --- | --- | --- | --- | --- |
| 17.8 (≈ 119 µM) | – | – | – | – | – | Nc1nc2c(N)ncnc2[nH]1 |
| – | ≤ 4.74 | 61.5 | – | – | – | Cn1ccnc1C1CCN(C(=O)COCc2nc3cc(F)ccc3[nH]2)CC1 |
| 6.78 (≈ 23 µM) | 13.2 | 477 | 1.44 | – | – | O=C(Nc1nccs1)c1c2c(nc3ccccc13)CCC2 |
| – | ≤ 4.74 | ≤ 10.7 | – | – | – | Cc1nn(C)c2nc(-c3ccncc3)cc(C(=O)O)c12 |
| – | 7.63 | 61.4 | 0.68 | – | – | CC(C)(C(=O)c1ccccc1)/[N+]([O-])=C/c1ccc(F)cc1 |
| 35.2 (≈ 128 µM) | ≤ 4.74 | 20.8 | 0.427 | – | – | O=C(NCc1ccc(CO)c(F)c1)Nc1ccccc1 |
| – | 193 | 2640 | 0.691 | – | – | Cc1cnc(N2CCSCC2)nc1N1CCSCC1 |
| 17.9 (≈ 61.5 µM) | 31.3 | 593 | – | – | – | CCCc1nnc2sc(-c3cc(C(C)C)nn3C)nn12 |
| – | ≤ 4.74 | 50.8 | 0.748 | – | – | N#CCn1ncnc1-c1cccc(C#N)c1 |
| 19.1 (≈ 45.1 µM) | 391 | 1930 | 0.969 | – | – | COc1ccc(NC(=O)C(C)N2CCCN(c3ccc(C(F)(F)F)cn3)CC2)cc1 (configuration not stated) |
| – | ≤ 4.74 | 19.2 | 202 | 0.239 | 1 | CCS(=O)(=O)N1CC(CC#N)(n2cc(-c3ncnc4[nH]ccc34)cn2)C1 |
| 46.6 (≈ 160 µM) | 26.3 | 99.7 | – | – | – | CC(C)CCN1CCn2c1nc1c2c(=O)n(C)c(=O)n1C |
| 25.7 (≈ 65.5 µM) | 150 | 724 | 0.951 | – | – | Cc1cccc(NC(=O)CN2CCCN(c3ccc(C(F)(F)F)cn3)CC2)c1 |
| 54.9 (≈ 169 µM) | 93.3 | 1960 | 0.816 | – | – | Fc1cccc(OC2CCN(Cc3nc4ccccc4[nH]3)CC2)c1 |
| – | 1050 | 2420 | 1.61 | 0.00885 | – | Cc1ccc(Oc2ccc(Cl)cc2NC(=O)CN(C)CC(=O)N(C)C)cc1 |
| 94.4 (≈ 186 µM) | 32.2 | 94.5 | – | – | – | CN(c1ncccc1CNc1nc(Nc2ccc3c(c2)CC(=O)N3)ncc1C(F)(F)F)S(C)(=O)=O |
| – | 28.1 | 209 | 7.53 | – | – | CCc1c(O)cc(O)c(C(=O)c2ccc(OCCN3CCOCC3)c(OC)c2)c1CC(=O)N(CCOC)CCOC |
| 24 (≈ 107 µM) | 67.1 | 105 | 0.671 | – | – | COc1cncc(-c2ccnc3[nH]ccc23)c1 |
| 63.3 (≈ 230 µM) | ≤ 4.74 | 22.7 | 9.23 | – | – | O=C(Cc1ccc(F)cc1)NCCn1cccnc1=O |
| 53 (≈ 228 µM) | ≤ 4.74 | 70.4 | 0.627 | – | – | CON(C)C(=O)Cc1c(C)[nH]c2ccccc12 |

| aqueous solubility [µg/mL] | intrinsic clearance, human liver microsomes [mL/min/kg] | intrinsic clearance, rat liver microsomes [mL/min/kg] | MDR1-MDCK efflux ratio | fraction unbound, human plasma | fraction unbound, rat plasma | SMILES |
| --- | --- | --- | --- | --- | --- | --- |
| 1.75 (≈ 6.07 µM) | – | – | – | – | – | Cc1ccc(C)c(CN2C(=O)C(=O)N(CC(C)C)C2=O)c1 |
| 12.6 (≈ 42.1 µM) | 88.8 | 297 | 3.4 | – | – | CC(C)c1ccc2c(c1)[C@H](NC(=O)Cn1ccnn1)CCC2 |
| 58.4 (≈ 289 µM) | 5.09 | ≤ 10.7 | 1.26 | – | – | Cc1ccccc1-n1cc[nH]c(=O)c1=O |
| – | 65.9 | 1990 | 0.395 | – | – | CCCN(CCC1=CCCCC1)C(=O)c1cc(C(F)F)n[nH]1 |
| – | 255 | 1760 | – | – | – | O=C(CCc1ccc(-c2ccccc2)o1)N1CCC(n2c(=O)[nH]c3ccccc32)CC1 |
| 36.4 (≈ 149 µM) | ≤ 4.74 | 26.1 | 0.672 | – | – | CCOc1ncccc1-c1nc(C)cc(NC)n1 |
| 30.6 (≈ 120 µM) | 16.8 | 626 | 0.556 | – | – | Cc1ccc(NC(=O)C(C)(C)c2ccccc2)nc1 |
| 29.9 (≈ 120 µM) | 5.21 | 51.4 | 6.54 | – | – | Cc1nnc(NCc2cccnc2)c2ccccc12 |
| – | 42.1 | 2670 | 0.518 | – | – | O=C(CSCCc1ccccn1)Nc1ccccc1 |
| – | 9.01 | 25.9 | 28.9 | – | – | N[C@@H]1CCCN(c2c(/C=C3\SC(=O)NC3=O)cccc2-c2ccccc2)C1 |
| – | – | – | 0.831 | – | – | Cc1cc(C)c(-c2csc(CC(N)=O)n2)cc1C |
| 0.85 (≈ 2.23 µM) | – | – | 4.26 | – | – | O=C1N=C(N2CCN(c3ccccc3)CC2)S/C1=C\c1ccc(O)cc1O |
| 4.75 (≈ 15.1 µM) | 175 | 611 | 1.33 | – | – | CSc1ccc(NC(=O)Cn2nc(C3CC3)ccc2=O)cc1 |
| – | 51.6 | 366 | 0.619 | – | – | Cc1nn(C)c(C)c1-c1cc(C(C)(C)C)nc(N(C)C)n1 |
| – | ≤ 4.74 | 239 | – | – | – | Cc1cc(C(=O)N(C)Cc2ccccc2C)[nH]n1 |
| 36 (≈ 149 µM) | 32.9 | 161 | 0.524 | – | – | Cc1cccnc1CNc1ccc(C#N)cc1F |
| 35.2 (≈ 128 µM) | ≤ 4.74 | 658 | 1.19 | – | – | CC(C)(C)C(=O)Nc1nnc(Cc2ccccc2)s1 |
| 0.76 (≈ 2.43 µM) | – | – | 0.598 | – | – | CNC(=O)c1ccc(/C=C/c2nc3cc(Cl)ccc3o2)cc1 |
| – | 1040 | 2110 | – | – | – | Cc1cc(C)nc(SCC(=O)N2c3ccccc3C(C)(c3ccc(Cl)cc3)CC2(C)C)n1 (configuration not stated) |
| 16.1 (≈ 47.3 µM) | 133 | 1580 | 0.527 | – | – | COc1cccc(CN2Cc3ccccc3OC3(CCOCC3)C2)c1 |

| aqueous solubility [µg/mL] | intrinsic clearance, human liver microsomes [mL/min/kg] | intrinsic clearance, rat liver microsomes [mL/min/kg] | MDR1-MDCK efflux ratio | fraction unbound, human plasma | fraction unbound, rat plasma | SMILES |
| --- | --- | --- | --- | --- | --- | --- |
| – | 8.3 | 56.2 | 0.527 | – | – | CC(=O)c1ccc2c(c1)CCN(CCC1OCCO1)CC2 |
| 2.65 (≈ 7.13 µM) | 79.4 | 6660 | – | – | – | O=c1[nH]c2ccccc2n1C1CCN(S(=O)(=O)Cc2ccccc2)CC1 |
| – | 29.8 | 1410 | 26.6 | – | – | CC(C)(C)C(=O)N1CCC(CN(CC(N)=O)C2CCCC2)CC1 |
| 46 (≈ 182 µM) | 10.4 | 94.5 | 0.695 | – | – | CN(C)c1cc(CNc2ccc(C#N)cn2)ccn1 |
| 33.6 (≈ 100 µM) | 51.7 | 199 | 90.9 | – | – | CCCn1ncc2[nH]c(-c3cc(Cn4cncn4)c(C)cc3C)nc21 |
| 0.31 (≈ 0.718 µM) | – | – | – | – | – | COc1ccc(Oc2cc(C)c(-c3csc(NC(=O)c4ccncc4)n3)c(C)c2)cc1 |
| – | ≤ 4.74 | 57 | 43.2 | – | – | c1ccc(Nc2nc(N3CCNCC3)nc(N3CCOCC3)n2)cc1 |
| 69.4 (≈ 167 µM) | 14.6 | 767 | 9.97 | – | – | CN(Cc1ccccc1Br)C(=O)Nc1ccc(C(=O)N2CCCC2)cc1 |
| – | ≤ 4.74 | 31.7 | 0.726 | – | – | Cc1cc(-c2nc(N(C)C)no2)cc(O)n1 |
| 21.4 (≈ 72.3 µM) | 9.23 | 84.8 | 4.06 | – | – | O=C(CCn1nnc2ccccc2c1=O)Nc1ccncc1 |
| – | ≤ 4.74 | 27.4 | – | – | – | O=C(CCCCCCC(=O)Nc1ccccc1)NO |
| 2.43 (≈ 6.29 µM) | 41.6 | 204 | 8.29 | – | – | O=C(CSc1nccn1C1CC1)Nc1c(Cl)cc(Cl)cc1C(=O)O |
| 50.8 (≈ 175 µM) | 21.7 | 463 | 1.58 | – | – | CN(CC(=O)NC1CC1)C(=O)C1C2CC3CC(C2)CC1C3 (configuration not stated) |
| – | 36.7 | 957 | 0.723 | – | – | Cc1cc(C(=O)N2CCC(C(=O)c3ccnn3C)CC2)sc1C |
| 38.1 (≈ 159 µM) | ≤ 4.74 | ≤ 10.7 | 0.476 | – | – | Nc1ccc(C(=O)N2CCOCC2)c(Cl)c1 |
| 39.9 (≈ 183 µM) | ≤ 4.74 | 99.9 | 0.664 | – | – | CNC(=O)Cn1ccc2cc(OC)ccc21 |
| – | ≤ 4.74 | ≤ 10.7 | – | – | – | CCNC(=O)c1cc(N2CCC(N3CCCC3=O)CC2)ccn1 |
| 0.4 (≈ 1.07 µM) | – | – | 0.455 | – | – | CC(C)(C)c1ccc(C(=O)Nc2ccc(C(=O)Nc3ccccc3)cc2)cc1 |
| – | 140 | 1910 | 4.89 | – | – | Cc1cc(C)c2[nH]c(C(=O)N3CC[C@@](O)(CC(C)C)[C@@H](Oc4ccc(F)cc4)C3)c(C)c2c1 |
